This is an account of results in patent publication US20220373555A1, “Methods to detect or quantify a gadolinium-based contrast agent in a sample using a luminescent agent able to chelate a Gd3+ cation” (THE REGENTS OF THE UNIVERSITY OF CALIFORNIA, priority 2021, published 2022).

The nature of data set [1]: Quantification of GBCAs in mouse urine by luminescence assay. Type of data set: in vivo, Swiss Webster mice. The settings on record: for [GBCA] in assay solution: mouse urine 2 h after injection, diluted in MES buffer; for [GBCA] in original sample: mouse urine collected 2 h after injection; for GBCA concentration in mouse urine, Luminescence assay: urine collected 2 h after i.v. injection, 0.3 mmol/kg. How it is done: (§1) Finally, the luminescence assay by quantifying GBCAs in mouse urine samples is validated. The three GBCAs are intravenously injected (four mice per group), and urine is collected 2 h after injection, as mice excrete the contrast agents more quickly than humans do.^41 Due to the different composition between mouse and human urine,^42 calibration curves (FIG. 7) are performed by spiking GBCA standards into urine from control mice rather than into synthetic human urine. Table 4 reports the assay response to the mouse urine samples, and Table 3 compares the GBCA concentrations quantified by the assay versus inductively coupled plasma optical emission spectrometry (ICP-OES), which is one of the gold standard techniques for gadolinium quantification.^43 The assay provided values that are very similar to those of ICP-OES, with only slightly higher standard deviations.
(§2) The protocol used in the animal studies is reviewed and approved by the Institutional Animal Care and Use Committee of Lawrence Berkeley National Laboratory, and is performed in AAALAC-accredited facilities according to prescribed guidelines and regulations. The animals are young adult (78 days old) female (33.0±1.4 g) Swiss Webster mice (Simonsen Laboratories, Gilroy, Calif., USA). Mice are kept under a 12 h light cycle with controlled temperature (21-24° C.) and relative humidity (30-70%), and are given water and food ad libitum. Each group is housed together in a plastic stock cage lined with a 0.5 cm layer of highly absorbent low-ash pelleted cellulose bedding (ALPHA-dri). Groups of four mice are injected intravenously into a warmed lateral tail vein with a single dose of GBCA (0.3 mmol/kg mouse) or bacteriostatic 0.9 bio sodium chloride solution (control group), and urine is collected after 2 h through bladder massage method. Finally, euthanasia is performed under isotiurane anesthesia.
Because the GBCA concentration in mouse urine is very high at early excretion times, the samples are diluted in buffer as described: 1 μL mouse urine samples are mixed with […] MES solutions (final concentration 50 mM, pH 6.0). 4 μL 3,4,3-LI(1,2-HOPO) (1 mM) are added to each solution, mixed for 10 s, and left to incubate at room temperature, without stirring for 10 min. 4 μL EuCl3 (1 mM) are added, mixed for 10 s and left undisturbed for 10 min before recording emission spectra from 500 to 700 nm under 315 nm excitation with a SpectraMax iD3 Multi-Mode Microplate Reader. For calibration curve preparation, GBCA standard solutions are spiked into urine of control mice. The resulting solutions are quantified as previously described in this paragraph.

A short description of data set [2]: Quantification of GBCAs in mouse urine by ICP-OES. Type of data set: in vivo, Swiss Webster mice. The settings on record: urine collected 2 h after i.v. injection, 0.3 mmol/kg. The method, then: as §1
as §2, with “Groups of four mice are injected intravenously into a warmed lateral tail vein with a single dose of GBCA (0.3 mmol/kg mouse) or bacteriostatic 0.9 bio sodium chloride solution (control group), and urine is collected after 2 h through bladder massage method. Finally, euthanasia is performed under isotiurane anesthesia.” left out
To quantify the concentrations of the GBCA in mouse urine by ICP-OES, 50 μL of commercial stock solutions are digested in 100 μL of nitric acid (70%) and 100 μL of hydrogen chloride (6 N) for 3 h at 60 ° C. and re-dispersed in 4.75 mL of Milli-Q water. The final concentration of gadolinium in solution is quantified on a Perkin Elmer 5300 DV optical emission ICP with auto sampler at the Inductively Coupled Plasma Spectroscopy Facility of the University of California, Berkeley. […]

A short description of data set [3]: Effect of urine on Eu3+-3,4,3-LI(1,2-HOPO) emission / stability in urine. Type of data set: physicochemical. How it is done:
Urine is a complex matrix comprised of salts and metabolism by-products, which can potentially affect assay response. […] Although the average pH of human urine is 6.0, there is a strong variation among individuals.^37 Therefore, the following in vitro experiments are performed with urine at 50% dilution with […] buffer (50 mM, pH 6.0) to fix the acidity of the solution, preventing potential variations in the assay response due to sample pH, and 10 min incubation times, which had been optimized in preliminary experiments.
2 μL 3,4,3-LI(1,2-HOPO) (1 mM) and EuCl3 (1 mM) are added to a water solution, mixed for 10 s, and left to incubate at room temperature, without stirring, for 10 min. The absorption spectrum (from 250 to 425 nm) and luminescence spectrum (from 500 to 750 nm under 315 nm excitation) are recorded with a SpectraMax iD3 Multi-Mode Microplate Reader (Molecular Devices, Sunnyvale, Calif.).

The nature of data set [4]: Selectivity of the Eu3+-3,4,3-LI(1,2-HOPO) probe: optical response to Gd3+ and interfering cations. Type of data set: physicochemical. The settings on record: 50 μM cation; emission at 620 nm, 315 nm excitation.
Experimental: The optical response (FIG. 2b) of the Eu^3+-3,4,3-LI(1,2-HOPO) complex to Gd^3+ ions and several potential interfering cations is examined.
2 μL 3,4,3-LI(1,2-HOPO) (1 mM) are added to various solutions containing 50 μM of Gd^3+, Na^+, K^+, Ca^2+ or Mg^2+, mixed for 10 s, and left to incubate at room temperature, without stirring for 10 min. 2 μL EuCl3 (1 mM) are added to the solutions, mixed for 10 s, and left undisturbed for 10 min before recording emission spectra from 500 to 700 nm, under 315 nm excitation with a SpectraMax iD3 Multi-Mode Microplate Reader.
The nature of data set [5]: Detection of GBCA in synthetic human urine by luminescence quenching assay. The settings on record: GBCA increased up to 150 μM; 50% synthetic human urine, 50 mM MES pH 6.0. How it is done: In this assay, 3,4,3-LI(1,2-HOPO) is added to the urine sample and, in the absence of GBCAs, 1,2-HOPO groups remain available to complex other metal species. Eu^3+ is then added, and its emission is sensitized (FIG. 3). In the presence of GBCAs, however, 1,2-HOPO units acquire the Gd^3+ from the contrast agent because of their higher affinity for the metal compared to clinical ligands,^23 preventing the coordination of subsequently added Eu^3+. Thus, a drastic emission quenching is induced in presence of GBCAs.
Surine™ samples containing different amounts of GBCA are diluted down to 50% with MES solution (final concentration 50 mM, pH 6.0). 2 μL 3,4,3-LI(1,2-HOPO) (1 mM) are added to each solution, mixed for 10 s, and left to incubate at room temperature, without stirring for 10 min. 2 μL EuCl3 (1 mM) are added, mixed for 10 s and left undisturbed for 10 min before recording emission spectra from 500 to 700 nm under 315 nm excitation with a SpectraMax iD3 Multi-Mode Microplate Reader.
The limit of detection is calculated as: […]
Where ILOD is the assay response intensity at the limit of detection, Iblank is the response intensity of the blank, and σblank is the standard deviation for the blank signal.

As for `CNC(=O)CN(CCN(CCN(CC(=O)[O-])CC(=O)NC)CC(=O)[O-])CC(=O)[O-].[Gd+3]` [Omnsican, gadodiamide], in data set [1], the “[GBCA] in assay solution” value is 101 ± 3 µM; the “[GBCA] in original sample” value was determined as 0.020 ± 0.001 M; the “GBCA concentration in mouse urine, Luminescence assay” value came to 0.020 ± 0.001 M. Moreover, the “GBCA concentration in mouse urine, ICP-OES” value (“GBCA concentration … ICP-OES” below) in data set [2] worked out at 0.024 ± 0.000 M.

On to Eu^3+-3,4,3-LI(1,2-HOPO), for which, in data set [3] (20 μM, 0 to 100% artificial human urine (Surine), 315 nm excitation), the “effect of urine on emission” value is “not affected by urine”.

Take `O=C(NCCCN(CCCCN(CCCNC(=O)c1cccc(=O)n1O)C(=O)c1cccc(=O)n1O)C(=O)c1cccc(=O)n1O)c1cccc(=O)n1O` [3,4,3-LI(1,2-HOPO)]: in data set [3] (urine), the stability in urine entry is reported as “stable in urine”.

Consider `O.O.O.O.O.O.[Cl-].[Cl-].[Cl-].[Gd+3]` [Gd^3+, gadolinium (III) chloride hexahydrate], for which the “quenching of 20 μM Eu^3+-3,4,3-LI(1,2-HOPO) emission” value in data set [4] was 71±1%.

For `CNC[C@H](O)[C@@H](O)[C@H](O)[C@H](O)CO.CNC[C@H](O)[C@@H](O)[C@H](O)[C@H](O)CO.O=C([O-])CN(CCN(CC(=O)[O-])CC(=O)O)CCN(CC(=O)[O-])CC(=O)O.[Gd+3]` [Magnevist, gadopentetate dimeglumine], the “decrease of luminescence of the assay solution” value in data set [5] is on record as 75±1%. Further, in data set [1], the “[GBCA] in assay solution” value came out at 101 ± 13 µM; the “[GBCA] in original sample” value came out at 0.020 ± 0.005 M; the “GBCA concentration in mouse urine, Luminescence assay” value was found to be 0.020 ± 0.005 M. Further, in data set [2], the “GBCA concentration … ICP-OES” value is 0.018 ± 0.000 M.

Turning to `CNC[C@H](O)[C@@H](O)[C@H](O)[C@H](O)CO.CNC[C@H](O)[C@@H](O)[C@H](O)[C@H](O)CO.O=C([O-])CN(CCN(CC(=O)[O-])CC(=O)O)CCN(CC(=O)O)C(COCc1ccccc1)C(=O)[O-].[Gd+3]` (stereo not shown) [Multihance, gadobenate dimeglumine], in data set [1], the “[GBCA] in assay solution” value was determined as 86 ± 9 µM; the “[GBCA] in original sample” value is listed as 0.017 ± 0.004 M; the “GBCA concentration in mouse urine, Luminescence assay” value is listed as 0.017 ± 0.004 M. Moreover, the “GBCA concentration … ICP-OES” value in data set [2] worked out at 0.015 ± 0.000 M.
